Test results published in patent US20200237871A1, “METHODS FOR MITIGATING LIVER INJURY AND PROMOTING LIVER HYPERTROPHY, REGENERATION AND CELL ENGRAFTMENT IN CONJUNCTION WITH RADIATION AND/OR RADIOMIMETIC TREATMENTS” (Janssen Pharmaceutica NV, priority 2019, published 2020).
“Also recorded” adds a separate entry of the source.

How the values were obtained:
DPPIV−/− knockout mice = test: Relative change of dissected liver lobe size after hepatic irradiation (Example 2); assay type: in vivo, mouse
Description: 8-12-week-old male and female Di-peptyl peptidase IV (DPPIV) −/− knockout mice and 8-12-week-old male and female C57Bl6 mice were used in this study. Animals were weighed in the beginning of the experiment and before tissue collection. All animals were housed in the Institute for Animal Studies at Albert Einstein College of medicine and fed regular rodent chow. All experiments were performed to according to protocols approved by Institutional Animal Care and Use Committee at Albert Einstein College of Medicine. Animals were made cirrhotic using CCl4 administration (intraperitoneal [IP] injections twice a week for at least 11 weeks).
Image-guided external beam irradiation was performed using a small animal radiation research platform (SARRP, Xstrahl Inc., Suwanee, Ga.). Mice were given gastrografin contrast through gavage to improve visualization of the gastrointestinal (GI) tract. After approximately 2 minutes, mice were positioned on a tubular couch and anesthetized with ˜2% Isofluorane (Isothesia, USP) in 2 L/min pure oxygen. A cone-beam computed tomography (CBCT) scan was acquired and a treatment plan irradiating the median lobe and right lobe was generated using the MuriPlan software. […]

cirrhotic mice = test: Extent of radiation induced liver disease (RILD) by SPECT-CT in cirrhotic mice (Example 5); assay type: in vivo, mouse; settings: 50 Gy HIR, RWJ-800088 with LSEC transplants
Description: Male C57BL/6 DPPIV knockout male mice (10-14 weeks) were injected intraperitoneally with carbon tetrachloride (CCl4) twice a week for a minimum of 12 weeks until a maximum of when 5 out of 30 mice perish from the CCl4 injection. Immediately after, the animals were randomly distributed into the experimental groups.
Image-guided external beam irradiation was performed using a small animal radiation research platform (SARRP, Xstrahl Inc., Suwanee, Ga.). Mice were given gastrografin contrast through gavage to improve visualization of the gastrointestinal (GI) tract. […]
The methods were identical to Experiment 4 as described above with the exception that the CCl4 dose was increased to 20% in olive oil over 12 weeks. To evaluate the effect of RWJ-800088+Liver Sinusoidal Endothelial Cells (LSEC), RWJ-800088+Plerixafor (a selective inhibitor of CXCR4 administered pre- and post-irradiation) on radiation induced liver disease as measured by SPECT-CT in cirrhotic mice after single hepatic irradiation (HIR) at 50 Gy. […]
The dosing solution of RWJ-800088 was prepared as described in Experiment 4. […] The number of viral particles and infectious units' ratio was determined by infecting 293 cells at various dilutions, followed by immunocytochemical staining for adenoviral hexons. The infectious titer was calculated from the number of plaques formed per 1,000 viral particles. […]

With “methoxypolyethyleneglycol20000-propionyl-L-Isoleucyl-L-Glutamyl-Glycyl-L-Prolyl-L-Threonyl-L-Leucyl-L-Arginyl-L-Glutaminyl-L-2-Naphthylalanyl-L-Leucyl-L-Alanyl-L-Alanyl-L-Arginyl-Sarcosyl-Ne-(methoxypolyethyleneglycol20000-propionyl-L-Isoleucyl-L-Glutamyl-Glycyl-L-Prolyl-L-Threonyl-L-Leucyl-L-Arginyl-L-Glutaminyl-L-2-Naphthyl alanyl-L-Leucyl-L-Alanyl-L-Alanyl-L-Arginyl-Sarcosyl-)-Lysinamide [RWJ-800088]” the “volume of the non-irradiated left lobe” value (DPPIV−/− knockout mice; 2-months post-HIR, HIR then LSECs+/−RWJ-800088 at 24-hours post-HIR) was “trend for an increase”, the “size of the irradiated lobes (median and right)” value (DPPIV−/− knockout mice; RWJ-800088 and HIR only) was “trend for a reduction” and the “protection against RILD (SPECT-CT)” value (cirrhotic mice) was “trend toward protection against RILD; also recorded: protected against RILD”.
